# Data: patent publication US11434242B2, “Dopamine-b-hydroxylase inhibitors” (BIAL-PORTELA & Cª, S.A., priority 2017, dated 2022)
# Target: T1, Dopamine beta hydroxylase (Homo sapiens, UniProt P09172)
# T1 construct: 125 μl of plasma; tissue Instituto Português do Sangue Transplantação; host or cells: human plasma from healthy donors
# T1 sequence (P09172 40-617 limits assumed): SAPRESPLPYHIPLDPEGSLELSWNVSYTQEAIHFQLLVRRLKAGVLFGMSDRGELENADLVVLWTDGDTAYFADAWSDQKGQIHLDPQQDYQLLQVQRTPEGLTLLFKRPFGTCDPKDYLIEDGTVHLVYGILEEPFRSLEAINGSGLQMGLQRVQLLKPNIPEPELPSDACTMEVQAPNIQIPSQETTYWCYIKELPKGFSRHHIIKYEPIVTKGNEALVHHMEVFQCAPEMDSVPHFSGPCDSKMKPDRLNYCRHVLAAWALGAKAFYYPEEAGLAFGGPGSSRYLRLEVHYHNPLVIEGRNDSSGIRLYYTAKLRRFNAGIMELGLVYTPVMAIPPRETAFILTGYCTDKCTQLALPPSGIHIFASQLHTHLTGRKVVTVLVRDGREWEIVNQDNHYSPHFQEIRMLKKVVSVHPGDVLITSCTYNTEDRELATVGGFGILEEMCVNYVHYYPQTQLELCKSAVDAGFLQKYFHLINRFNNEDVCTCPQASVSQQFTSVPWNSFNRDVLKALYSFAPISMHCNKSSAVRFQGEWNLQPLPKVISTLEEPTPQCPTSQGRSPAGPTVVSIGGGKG
# Assay: Dopamine beta hydroxylase activity in human plasma
# Format: biochemical
# Conditions: for Plasma (0.01 μM), activity in % of control: inhibitor 0.01 μM; for Plasma (0.1 μM), activity in % of control: inhibitor 0.1 μM; for Plasma (1 μM), activity in % of control: inhibitor 1 μM
# Protocol: Furthermore, the ability of a compound to inhibit DβH activity may be assessed in human plasma using the following assay. […]. Dopamine beta hydroxylase activity in human plasma was measured by the method of Nagatsu and Udenfriend (Nagatsu, T. and Udenfriend, S. “Photometric assay of dopamine-μ-hydroxylase activity in human blood.” Clin. Chem. 18(9) 980-983, 1972) with minor modifications. Catalase, N-ethylmaleimide, tyramine, disodium fumarate, pargyline, sodium acetate, ascorbic acid, copper sulfate and octopamine were obtained from Sigma Chemical Co., St. Louis, Mo. 63178. Human plasma samples were obtained from healthy donors (Instituto Português do Sangue Transplantação, Centro Sangue Transplantação, Porto, Portugal). From date of collection, plasma was stored at −80° C. until use. Test compounds were initially prepared in dimethyl sulfoxide at a concentration of 10 mM and diluted in dimethyl sulfoxide to the required concentrations. Test compounds were further diluted in ultrapure water to a concentration 20-fold to that of the final concentration to be tested. Final concentrations of test compounds were 10, 100 and 1000 nM. The various reagents used to make up the incubation buffer were premixed and consisted of the following components: sodium acetate buffer (1 M, pH 5.0, 18 ml), sodium fumarate (0.2 M, 4.5 ml), ascorbic acid (0.2 M, 4.5 ml, freshly prepared), pargyline (20 mM, freshly prepared, 4.5 ml), N-ethylmaleimide (0.2 M, 4.5 ml), catalase (10 000 U/ml, 9 ml), copper sulfate (20 μM, 4.5 ml) and 4.5 ultrapure water. The standard incubation mixture (total volume, 950 μl) contained: 50 μL of compound or vehicle (dimethyl sulfoxide 2%); 700 μL of incubation buffer; 125 μl of plasma (or saline for blank reaction or standard curve); 75 μl of saline. The reaction mixture was placed in water bath, shaking at 37° C. and pre-incubated for 10 minutes. Tyramine (0.5 M) was added and incubation proceeded for 45 minutes. The reaction contents were exposed to air. A sample of enzyme preparation (with 125 μl of plasma) that had been added perchloric acid 2 M at the end of the pre-incubation period was used as blank. A blank for each of the tested compounds was used. For octopamine standard curve, perchloric acid 2 M was replaced by increasing concentrations of octopamine prepared in perchloric acid 2 M (0.5, 1, 2.5, 5, 7.5, 10, 15, 20 μg/ml, final concentration). The incubation was stopped by adding 200 μl of 2 M molar perchloric acid, and the mixture was centrifuged at 9000 g for 5 min. The supernatant fluid (800 μL) was transferred to a column (SPE cartridge ISOLUTE SCX-3, 100 mg) and centrifuged at 150 g for 2 min. The column was washed two more times with 0.5 ml of ultrapure water by centrifuging at 150 g for 2 min. The adsorbed octopamine was eluted twice with 0.3 ml of 4 M ammonium hydroxide by centrifuging at 150 g for 2 min. Octopamine in the eluate was then converted to p-hydroxybenzaldehyde by adding 200 μl of sodium periodate (2%) and incubating for 6 min. Excess periodate was than reduced by adding 200 μl of sodium metabisulfite (10%). Absorbance was measured at […] in a 96-well plate by use of a SpectraMAX plus 384 (Molecular Devices) with software SOFTmax® PRO Software 5.3 spectrophotometer. Absorbance was linear with octopamine concentration from 0.5 to 20 μg/ml. Dopamine beta hydroxylase activity is determined as nmol of octopamine formed/ml of plasma/hour and effect of compounds is presented as % control.
# Results are reported in the table below as activity in % of control at the inhibitor concentration tested.
SMILES,"Plasma (0.01 μM), activity in % of control","Plasma (0.1 μM), activity in % of control","Plasma (1 μM), activity in % of control"
"Cn1c(CC(=O)NCC2CCCO2)c2n(c1=S)C[C@@H](c1c(F)c(F)cc(F)c1F)C2 (stereo in doubt) [Example 387, 2-((R)-2-methyl-6-(2,3,5,6-tetrafluorophenyl)-3-thioxo-2,5,6,7-tetrahydro-3H-pyrrolo[1,2-c]imidazol-1-yl)-N—(((S)-tetrahydrofuran-2-yl)methyl)acetamide]",92.9 % of control,43.7 % of control,
"Cn1c(CC(=O)NCC2CCCO2)c2n(c1=S)C[C@@H](c1c(F)c(F)cc(F)c1F)C2 (stereo in doubt) [Example 391, 2-((R)-2-methyl-6-(2,3,5,6-tetrafluorophenyl)-3-thioxo-2,5,6,7-tetrahydro-3H-pyrrolo[1,2-c]imidazol-1-yl)-N—(((R)-tetrahydrofuran-2-yl)methyl)acetamide]",83.8 % of control,40.7 % of control,
"O=C(O)Cc1[nH]c(=S)n2c1C[C@@H](c1c(F)ccc(Br)c1F)C2 [Example 12, (S)-2-(6-(3-bromo-2,6-difluorophenyl)-3-thioxo-2,5,6,7-tetrahydro-3H-pyrrolo[1,2-c]imidazol-1-yl)acetic Acid]",,30.8 % of control,3.3 % of control
"O=C(O)Cc1[nH]c(=S)n2c1C[C@H](c1c(F)ccc(Br)c1F)C2 [Example 13, (R)-2-(6-(3-bromo-2,6-difluorophenyl)-3-thioxo-2,5,6,7-tetrahydro-3H-pyrrolo[1,2-c]imidazol-1-yl)acetic Acid]",,68.0 % of control,13.9 % of control
"O=C(O)Cc1[nH]c(=S)n2c1C[C@H](c1cc(F)ccc1F)C2 [Example 14, (R)-2-(6-(2,5-difluorophenyl)-3-thioxo-2,5,6,7-tetrahydro-3H-pyrrolo[1,2-c]imidazol-1-yl)acetic Acid]",,92.8 % of control,45.6 % of control
"O=C(O)Cc1[nH]c(=S)n2c1C[C@H](c1c(F)c(F)cc(F)c1F)C2 [Example 15, (R)-2-(6-(2,3,5,6-tetrafluorophenyl)-3-thioxo-2,5,6,7-tetrahydro-3H-pyrrolo[1,2-c]imidazol-1-yl)acetic Acid]",,66.0 % of control,11.4 % of control
"O=C(O)Cc1[nH]c(=S)n2c1C[C@@H](c1cc(Br)ccc1F)C2 [Example 16, (S)-2-(6-(5-bromo-2-fluorophenyl)-3-thioxo-2,5,6,7-tetrahydro-3H-pyrrolo[1,2-c]imidazol-1-yl)acetic Acid]",,72.9 % of control,12.7 % of control
"O=C(O)Cc1[nH]c(=S)n2c1C[C@H](c1cc(Cl)ccc1F)C2 [Example 17, (R)-2-(6-(5-chloro-2-fluorophenyl)-3-thioxo-2,5,6,7-tetrahydro-3H-pyrrolo[1,2-c]imidazol-1-yl)acetic Acid]",,79.0 % of control,32.2 % of control
"O=C(O)Cc1[nH]c(=S)n2c1C[C@H](c1c(F)cccc1F)C2 [Example 18, (R)-2-(6-(2,6-difluorophenyl)-3-thioxo-2,5,6,7-tetrahydro-3H-pyrrolo[1,2-c]imidazol-1-yl)acetic Acid]",,81.0 % of control,19.8 % of control
"CS(=O)(=O)NC(=O)Cc1[nH]c(=S)n2c1C[C@@H](c1c(F)ccc(Br)c1F)C2 [Example 20, (S)-2-(6-(3-bromo-2,6-difluorophenyl)-3-thioxo-2,5,6,7-tetrahydro-3H-pyrrolo[1,2-c]imidazol-1-yl)-N-(methylsulfonyl)acetamide]",,31.0 % of control,2.6 % of control
"CS(=O)(=O)NC(=O)Cc1[nH]c(=S)n2c1C[C@@H](c1cc(Br)ccc1F)C2 [Example 21, (S)-2-(6-(5-bromo-2-fluorophenyl)-3-thioxo-2,5,6,7-tetrahydro-3H-pyrrolo[1,2-c]imidazol-1-yl)-N-(methylsulfonyl)acetamide]",,69.2 % of control,16.7 % of control
"O=C(Cc1[nH]c(=S)n2c1C[C@H](c1c(F)ccc(Br)c1F)C2)NC1CCOC1=O (stereo partly drawn) [Example 22, 2-((R)-6-(3-bromo-2,6-difluorophenyl)-3-thioxo-2,5,6,7-tetrahydro-3H-pyrrolo[1,2-c]imidazol-1-yl)-N-(2-oxotetrahydrofuran-3-yl)acetamide]",,45.1 % of control,4.4 % of control
"CS(=O)(=O)NC(=O)Cc1[nH]c(=S)n2c1C[C@H](c1c(F)c(F)cc(F)c1F)C2 [Example 23, (R)—N-(methylsulfonyl)-2-(6-(2,3,5,6-tetrafluorophenyl)-3-thioxo-3,5,6,7-tetrahydro-2H-pyrrolo[1,2-c]imidazol-1-yl)acetamide]",,56.6 % of control,8.8 % of control
"CS(=O)(=O)NC(=O)Cc1[nH]c(=S)n2c1C[C@H](c1cc(F)ccc1F)C2 [Example 24, (R)-2-(6-(2,5-difluorophenyl)-3-thioxo-2,5,6,7-tetrahydro-3H-pyrrolo[1,2-c]imidazol-1-yl)-N-(methylsulfonyl)acetamide]",,100.2 % of control,45.6 % of control
"CCOC(=O)CNC(=O)Cc1[nH]c(=S)n2c1C[C@H](c1c(F)c(F)cc(F)c1F)C2 [Example 25, Ethyl (R)-(2-(6-(2,3,5,6-tetrafluorophenyl)-3-thioxo-2,5,6,7-tetrahydro-3H-pyrrolo[1,2-c]imidazol-1-yl)acetyl)glycinate]",,71.3 % of control,17.6 % of control
"C[C@H](NC(=O)Cc1[nH]c(=S)n2c1C[C@H](c1c(F)c(F)cc(F)c1F)C2)C(N)=O [Example 26, (S)-2-(2-((R)-6-(2,3,5,6-tetrafluorophenyl)-3-thioxo-2,5,6,7-tetrahydro-3H-pyrrolo[1,2-c]imidazol-1-yl)acetamido)propanamide]",,64.0 % of control,18.2 % of control
"N#CCNC(=O)Cc1[nH]c(=S)n2c1C[C@H](c1c(F)c(F)cc(F)c1F)C2 [Example 27, (R)—N-(cyanomethyl)-2-(6-(2,3,5,6-tetrafluorophenyl)-3-thioxo-2,5,6,7-tetrahydro-3H-pyrrolo[1,2-c]imidazol-1-yl)acetamide]",,51.6 % of control,7.6 % of control
